{"source": "paper PMC4499129", "about": "“DNA3′pp5′G de-capping activity of aprataxin: effect of cap nucleoside analogs and structural basis for guanosine recognition” (Nucleic Acids Research, 2015)", "key": {"Aprataxin-(33-232)": {"molecular_target": "T1, Aprataxin-(33-232) (Schizosaccharomyces pombe, UniProt O74859)", "T1 construct": "gene hnt3; catalytic domain aa 33-232 (HIT domain + zinc finger), His10Smt3 tag cut by Ulp1, tag-free; E. coli BL21(DE3); two protomers per asymmetric unit", "T1 sequence (O74859 33-232)": "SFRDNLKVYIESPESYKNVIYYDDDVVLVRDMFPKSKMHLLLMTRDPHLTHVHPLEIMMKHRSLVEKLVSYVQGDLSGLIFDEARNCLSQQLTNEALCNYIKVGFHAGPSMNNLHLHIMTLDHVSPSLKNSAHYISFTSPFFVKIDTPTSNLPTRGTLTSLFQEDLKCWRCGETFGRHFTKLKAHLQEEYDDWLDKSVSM", "experiment": "X-ray crystal structure, […] Å", "assay_type": "binding", "settings": "co-crystallised with 5 mM GMP, pH 8.0, active site of protomer B"}, "[1]": {"molecular_target": "T2, aprataxin-(33-232), catalytic domain (HIT + Zn finger) (Schizosaccharomyces pombe, UniProt O74859 33-232)", "T2 sequence": "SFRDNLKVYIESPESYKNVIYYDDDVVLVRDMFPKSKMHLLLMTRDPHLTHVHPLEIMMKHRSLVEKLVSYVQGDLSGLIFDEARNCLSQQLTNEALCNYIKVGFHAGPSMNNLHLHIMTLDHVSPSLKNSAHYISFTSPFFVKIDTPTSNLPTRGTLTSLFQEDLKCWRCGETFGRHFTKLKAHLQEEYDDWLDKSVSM", "experiment": "X-ray crystallography (2.25 A, P321); Zn2+, guanosine in active site; complementary 3'-PO4 strand … was in the mix but not in the crystal; Crystallization: aprataxin-(33-232) with 5 mM guanosine and 1.2 mM of each 10-mer, mixed with 15% PEG-3350, 0.15 M magnesium acetate; pH and temperature not given in the material", "settings": "protein: recombinant; chain copies: 2; two copies of the same strand; blunt 10-nt duplex, 8/10 mismatches, only terminal G:C pairs canonical"}}, "data": [{"molecule": "Nc1nc2c(ncn2[C@@H]2O[C@H](COP(=O)(O)O)[C@@H](O)[C@H]2O)c(=O)[nH]1", "note": "[GMP]", "values": [{"measurement": "X-ray crystal structure, 1.5 Å", "setting": "Aprataxin-(33-232); anti conformation", "value": "The refined model included guanosine in the active site of the A protomer and GMP"}]}, {"molecule": "Nc1nc2c(ncn2[C@@H]2O[C@H](CO)[C@@H](O)[C@H]2O)c(=O)[nH]1", "note": "[guanosine]", "values": [{"measurement": "X-ray crystal structure, 1.5 Å", "setting": "Aprataxin-(33-232); anti conformation crystal, grown with 5 mM GMP (no guanosine added), guanosine modelled in active site of protomer A, anti conformatio", "value": "Difference density allowed placement of guanosine in the active site of the A protomer"}]}, {"molecule": "10-mer self-paired mismatched duplex HO-GAATCATAAC-OH (dsDNA, 5'-OH and 3'-OH ends) DNA 1: GAATCATAAC DNA 2: GAATCATAAC", "values": [{"measurement": "binding result", "setting": "[1]", "value": "binds"}]}]}
